According to PubChem BioAssay (NCI):
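Tested at 5 concentrations; 48 h exposure; 96-well plates; endpoints linearly interpolated, else capped at highest concentration. TGI marks complete inhibition of growth.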 Where a SMILES comes first, the peptide text is derived from it. [ ]: non-standard residue; d: D form. pGlu = O=C1CC[CH](C(=O)O)N1; Thz = O=C(O)[CH]1CSCN1

Assays:
Test in all cases: NCI tumour cell line growth inhibition, 48 h
[1] = tested on: A549 NSCLC
[2] = tested on: ACHN renal
[3] = tested on: CAKI-1 renal
[4] = tested on: DU-145 prostate
[5] = tested on: IGROV1 ovarian
[6] = tested on: KM12 colon
[7] = tested on: NCI/ADR-RES ovarian
[8] = tested on: OVCAR-4 ovarian
[9] = tested on: SNB-75 CNS
[10] = tested on: SR leukemia
[11] = tested on: TK-10 renal

SMILES	TGI [1] [µM]	TGI [2] [µM]	TGI [3] [µM]	TGI [4] [µM]	TGI [5] [µM]	TGI [6] [µM]	TGI [7] [µM]	TGI [8] [µM]	TGI [9] [µM]	TGI [10] [µM]	TGI [11] [µM]
Nc1nc(Cl)cc(NCC2(CCO)CCC2)n1	> 100	> 100	> 100	> 100	> 100	> 100	> 100	> 100	> 10	> 100	> 100
CCOC(=O)C12CCC(=O)N1N(C)c1ncccc1N2 (configuration not stated)	> 100	> 100	> 100	> 100	> 100	> 100	> 100	> 100	> 100	> 100	> 100
COC1OC2COC1(OCc1ccccc1)C1OC(C)(C)OC21 (configuration not stated)	> 100	> 100	> 100	> 100	> 100	> 100	> 100	> 100	> 100	> 100	> 100
O=C(OC1=CCN(Br)C1=O)C1=C(O)C(=O)N(Br)C1	> 100	> 100	> 100	> 100	> 100	> 100	> 100	> 100	61.3	52.3	> 100
C=C1C(C(=O)OC)[C@H]1C(=O)OC (some centres not stated)	> 100	> 100	> 100	> 100	> 100	> 100	> 100	> 100	> 100	> 100	> 100
CCCCCCN(CCCCCC)CCC(=O)c1ccc2cc(Br)c3ccccc3c2c1	> 100	> 100	> 100	> 100	> 100	52.9	> 100			14.3	65.2
CC(C)C1CSC2N1C(=O)C2(OCc1ccccc1)C1CC1 (configuration not stated)	> 100	> 100	> 100	> 100	> 100	> 100	> 100	> 100	> 100	> 100	> 100
COc1ccc(/[N+]([O-])=C/c2ccc(OC(=S)S)c(OC)c2)cc1	> 100	> 100	66.7	> 100	> 100	33.3	92.3	49	51.1	63.5	> 100
COC(=O)[C@H](Cc1ccccc1)NC(=O)c1ccc(CNC(=O)/C=C/c2ccc(OCc3ccccc3)cc2)cc1	> 72.7	33	26	32.4	9.66	> 100	> 78	25.2	31.6	> 100	32
CCOC(=O)c1c(N)sc2c1CC(C)CC2 (configuration not stated)	> 100	> 100	> 100	> 100	> 100	> 100	> 100	> 100	98.1	86.8	> 100
O=C(Cc1ccc2ccccc2c1)NCc1ccc(C(=O)NCCc2ccccc2)cc1	> 100	> 100	> 100	> 100	> 100	> 100	> 100	> 100	> 100	> 100	> 100
COc1ccc(/C=C2\N=C(N3CCCC(CO)C3)NC2=O)cc1 (configuration not stated)	> 100	> 100	> 100	> 100	> 100	> 100	> 100	> 100	> 100	> 100	> 100
Cc1ccc2c(c1)nc1n2C(c2c(F)cccc2F)SC1 (configuration not stated)	> 100	> 100	> 100		> 100	> 100	> 100	> 100	> 100	87.9	> 100
O=S(=O)(O)c1ccc(N=Nc2ccccc2)cc1	> 100	> 100	> 100	> 100	> 100	> 100	> 100	> 100		> 100	> 100
C=C(/C=C/C=C(\C)CCC=C(C)C)[C@@H]1CC[C@]2([C@H](CCCO)/C(=C(/C)C=O)CC[C@]2(C)O)[C@@H]1O	38.2	> 100	60.9		81.1	15.4			99.4	40.9	66.2
COC(=O)CCc1ccc(CCC(=O)OC)cc1	> 100	> 100	> 100	> 100	> 100		> 100	> 100	> 100	> 100	> 100
O=c1[nH]c(NCc2cccnc2)nc2nc[nH]c12	> 100	> 100	> 100	> 100	> 100	> 100	> 100	> 100	> 100		> 100
CC(C)(C)c1ccc2c(c1)OP1(Oc3c(Cl)cc(Cl)c4cccnc34)(O2)Oc2ccc(C(C)(C)C)cc2O1	34.6		9.58		25.7	20.4	24.6	23.3	32.2		
COc1ccc(C2CC(c3c(O)ccc4ccccc34)=NN2)cc1OC (configuration not stated)		4.82	58.4	36.1	20.1	11.4	9.77	20.8	12.2		14.4
S=P1(Sc2ccccc2)Oc2ccc3ccccc3c2-c2c(ccc3ccccc23)O1	> 100		> 100		> 100	> 100	> 100	> 100	> 100		
O=C1c2ccccc2N(O)C1(c1ccccc1)C1CCCC=C1N1CCOCC1 (configuration not stated)	> 100	> 100	> 100		> 100				> 100	> 100	> 100
COC(=O)C1CCC(=O)N1C(c1ccc(OC)cc1)c1cc(OC)c(OC)c(OC)c1 (configuration not stated)	> 100	> 100	> 100	0.771		1.12	1.01	> 100	> 94.7		> 100

SMILES	TGI [1] [µM]	TGI [2] [µM]	TGI [3] [µM]	TGI [4] [µM]	TGI [5] [µM]	TGI [6] [µM]	TGI [7] [µM]	TGI [8] [µM]	TGI [9] [µM]	TGI [10] [µM]	TGI [11] [µM]
c1ccc2c3c(ccc2c1)-c1[nH]ncc1CCO3	> 100		> 64		> 86.9	> 100	> 100	> 84.9	> 74.9		
Cc1nc2c(c(N3CCN(C)CC3)n1)Cc1ccccc1-2	> 100	> 100	49.4	> 100		> 100	> 100		> 100		88.1
COC(=O)c1cc2c(c(C(=O)OC)c1)CCC2	> 100	> 100	> 100	> 100	> 100		> 100	> 100	> 100	86.8	> 100
CCCCSC1=N/C(=C\c2ccccc2O)C(=O)N1	> 100	> 100	> 100	> 100	> 100	> 100	> 100	> 100	> 100		> 100
CN1CCC2(CC1)SSC1(CCN(C)CC1)S2	> 100	> 100				> 100	> 100	> 100	> 100	> 100	
S=C(NCc1ccccc1)Nc1sc(=NCc2ccccc2)nc2sc3c(c12)CCN(N1CCc2c(sc4nc(=NCc5ccccc5)sc(NC(=S)NCc5ccccc5)c24)C1)C3	> 62.9	> 96.4	> 75.9	> 90.8	> 100	> 67.5	> 100	> 91	> 64.9		> 90.3
CCOC(=O)CNC(=O)C(CCC(=O)N(C)O)NC(=O)CCC(N)C(=O)O (configuration not stated)	> 100	> 100	> 100	> 100	> 100	> 100	> 100	> 100	> 100		> 100
COC(NC(=O)Nc1ccc(C)cc1)(C(F)(F)F)C(F)(F)F	> 100	> 100		> 100	> 100	> 100	84.7	> 100	> 100	> 100	> 100
Cc1c(NC(=S)Nc2ccc([N+](=O)[O-])cc2)c(=O)n(-c2ccccc2)n1C	> 100	> 100	> 100	> 100	> 100	> 100	> 100		> 100	> 100	> 100
COC(=O)C(Cc1c[nH]c2ccccc12)NC(=O)C(Cc1cnc[nH]1)NC(=O)C1CCC(=O)N1C(=O)OCc1ccccc1 (configuration not stated)	> 100	> 100			> 100	> 100			> 100	> 100	> 100
Cc1nc(OCc2ccccc2)c2ncn(CCO)c2n1	> 100	> 100	> 100	> 100	> 100	> 100	> 100	> 100		> 100	> 100
CCOC(=O)C(NC(=O)c1cccc(Cl)c1)(Nc1ccc(S(=O)(=O)Nc2cc(C)on2)cc1)C(F)(F)F (configuration not stated)	> 100	> 100	> 100	> 100	> 100	> 100	> 100	> 100	> 100		> 100
Cc1ccc(S(=O)(=O)n2cc(C=O)c(-c3cn(S(=O)(=O)c4ccc(C)cc4)cc3-c3cn(S(=O)(=O)c4ccc(C)cc4)cc3C=O)c2)cc1	> 100		> 100	> 100	> 100	> 100	> 100		> 100	> 100	72
COC(=O)Nc1nc2ccc(NS(=O)(=O)c3cccs3)cc2[nH]1	> 100	> 100	> 100	> 100	39.7	89.5	85.3	> 100	67.8		68
O=C1CCC(C(=O)N2CSCC2C(=O)O)N1 (configuration not stated) ([pGlu]-[Thz]-OH; configuration not given here)	> 100	> 100	> 100	> 100	> 100	> 100	> 100		> 100	> 100	> 100
Cc1cn(C2CC(n3cc(Cn4ccc(=O)[nH]c4=O)nn3)C(CO)O2)c(=O)[nH]c1=O (configuration not stated)	> 100	> 100	> 100	> 100		> 100	> 100	> 100	> 100		> 100
O=[N+]([O-])c1ncc(N(CCO)CCO)s1		> 100	> 100	> 100		> 100		> 100	> 100	> 100	79.5
COC(=O)C1=CO[C@@H](C)[C@@H]2Cn3ccc4c5ccccc5nc-4c3C[C@H]12	> 100	> 100			> 100			> 100	> 100		> 100
CO/C=C(/C(=O)OC)[C@@H]1C[C@@H]1c1ccc2ccccc2c1	57.4	78.7	66	> 100	70.7	54.6	65.3	77.1		44.7	> 100
O=C(O)c1nc2cc(Cl)ccc2[nH]c1=O	> 100	> 100	> 100	> 100	> 100	> 100	> 100	> 100		> 100	> 100
Fc1cc(C2=Nn3c(COc4ccccc4Cl)nnc3S/C2=C\c2ccc(Cl)cc2)c(Cl)cc1Cl		39.1	31.5	81.7	33	19.6	30.1	35.9		> 100	> 100
O=[N+]([O-])c1ccc(-c2csc(N=Nc3c(O)[nH]c4ccccc34)n2)cc1	81.3	> 100	39.4	> 100	57.9	> 100	> 100	> 100	> 100		35.6
